# ChEMBL document CHEMBL1201862, “PubChem BioAssay data set” (2004)
#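 Following 48 hours of exposure in 96-well plates, responses at five concentrations were used to interpolate endpoints linearly. At the GI50, growth is halved.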 The source made the active and inactive calls. Cut-off read from the data, not from the text of the source: active = GI50 up to about 1.1 µM and inactive = higher.
# What was measured:
# Experiment in all cases: NCI-60 cell line screen, 48 h
# [1] = test system: DMS-273
# [2] = test system: HCC 2998
# [3] = test system: HT-29
# [4] = test system: IGROV-1
# [5] = test system: Malme-3M
# [6] = test system: NCI-H226
# [7] = test system: OVCAR-3
# [8] = test system: SNB-75
# [9] = test system: EKVX
# [10] = test system: MCF7
# [11] = test system: NCI/ADR-RES
# [12] = test system: CAKI-1
# [13] = test system: BT-549
# [14] = test system: DU-145
# [15] = test system: Hs-578T
# [16] = test system: MDA-MB-231
# [17] = test system: MDA-MB-435
# [18] = test system: MDA-N
# [19] = test system: PC-3
# [20] = test system: T47D
SMILES,GI50 [1],GI50 [2],GI50 [3],GI50 [4],GI50 [5],GI50 [6],GI50 [7],GI50 [8],GI50 [9],GI50 [10],GI50 [11],GI50 [12],GI50 [13],GI50 [14],GI50 [15],GI50 [16],GI50 [17],GI50 [18],GI50 [19],GI50 [20]
Cc1ccccc1NC(=O)CSc1nnc(Cc2ccccc2)o1,> 100 µM (inactive),> 100 µM (inactive),> 100 µM (inactive),> 100 µM (inactive),> 100 µM (inactive),> 100 µM (inactive),> 100 µM (inactive),> 100 µM (inactive),,,,,,,,,,,,
Nc1ccc2cc(S(=O)(=O)O)cc(O)c2c1/N=N/c1ccc(NC(=O)Nc2ccc(/N=N/c3c(N)ccc4cc(S(=O)(=O)O)cc(O)c34)c(S(=O)(=O)O)c2)cc1S(=O)(=O)O,> 100 µM (inactive),> 100 µM (inactive),> 100 µM (inactive),> 100 µM (inactive),> 100 µM (inactive),> 100 µM (inactive),> 100 µM (inactive),95.9 µM (inactive),> 100 µM (inactive),> 100 µM (inactive),> 100 µM (inactive),,,,,,,,,
COc1c(CC(C)O)c2c3c(CC(C)O)c(OC)c(=O)c4c(O)cc5c(c6c(cc(O)c(c1=O)c62)OCO5)c43 (stereo unspecified) [CERCOSPORIN],0.906 µM (active),,0.364 µM (active),1.69 µM (inactive),0.374 µM (active),2.29 µM (inactive),1.87 µM (inactive),2.38 µM (inactive),,,,6.01 µM (inactive),,,,,,,,
CC1(C)OC2OC(COC(=O)C(c3ccccc3)c3ccccc3)C3OC(C)(C)OC3C2O1 (stereo unspecified),9.02 µM (inactive),> 10 µM (inactive),8.79 µM (inactive),> 10 µM (inactive),46.8 µM (inactive),> 10 µM (inactive),> 10 µM (inactive),17.1 µM (inactive),> 10 µM (inactive),,,> 10 µM (inactive),,,,,,,,
Cn1nc(-c2ccccc2)c(C(=O)/C=C/c2ccccc2)c(N2CCCC2)c1=O,14.7 µM (inactive),,12.6 µM (inactive),21.2 µM (inactive),,,,,20.4 µM (inactive),,,,,,,,,,,
COc1cc(=O)oc(/C=C/C=O)c1C,17.2 µM (inactive),17.9 µM (inactive),19.9 µM (inactive),30.4 µM (inactive),21.7 µM (inactive),31.2 µM (inactive),19 µM (inactive),16.3 µM (inactive),35.7 µM (inactive),,,33 µM (inactive),,,,,,,,
CCCCCCCCCCC(C)CCCCCCC(=O)OCC(COP(=O)([O-])OCC[N+](C)(C)C)OC(=O)CCCCCCC(C)CCCCCCCCCC (stereo unspecified),> 100 µM (inactive),> 100 µM (inactive),> 100 µM (inactive),> 100 µM (inactive),> 100 µM (inactive),> 100 µM (inactive),> 100 µM (inactive),> 100 µM (inactive),> 100 µM (inactive),,,> 100 µM (inactive),,,,,,,,
Cc1ccc(S(=O)(=O)OCCOCCOCCOCCOCCOS(=O)(=O)c2ccc(C)cc2)cc1,28.6 µM (inactive),41.6 µM (inactive),28.3 µM (inactive),79.8 µM (inactive),73.6 µM (inactive),33.5 µM (inactive),21.7 µM (inactive),> 100 µM (inactive),94.2 µM (inactive),,,47.1 µM (inactive),,,,,,,,
c1ccc(C2N3CCCCC3[C@@H]3c4[nH]c5ccccc5c4CCN23)cc1 (stereo partly specified),50.7 µM (inactive),98.9 µM (inactive),17.5 µM (inactive),> 100 µM (inactive),27 µM (inactive),,> 100 µM (inactive),57.9 µM (inactive),> 100 µM (inactive),,,> 100 µM (inactive),,,,,,,,
O=C(NC1CCCCC1)NC12CC3CC(CC(F)(C3)C1)C2,> 100 µM (inactive),> 100 µM (inactive),> 100 µM (inactive),> 100 µM (inactive),> 100 µM (inactive),,> 100 µM (inactive),40.4 µM (inactive),57.7 µM (inactive),,,,,,,,,,,
COc1cccc(/C=C2/S/C(=N/Nc3nc(C)c(C(C)=O)s3)NC2=O)c1O,,35.6 µM (inactive),37.6 µM (inactive),35.9 µM (inactive),33 µM (inactive),37.7 µM (inactive),22.5 µM (inactive),37.9 µM (inactive),24.9 µM (inactive),32.6 µM (inactive),33.8 µM (inactive),47.5 µM (inactive),28.9 µM (inactive),34.4 µM (inactive),57.8 µM (inactive),18.9 µM (inactive),30.5 µM (inactive),31.7 µM (inactive),25.9 µM (inactive),23.3 µM (inactive)
CSC1(C)C(=O)Nc2c(OCc3ccccc3)cc([N+](=O)[O-])cc21 (stereo unspecified),,> 100 µM (inactive),79.3 µM (inactive),54.8 µM (inactive),63.4 µM (inactive),13.5 µM (inactive),> 100 µM (inactive),11.9 µM (inactive),29.4 µM (inactive),14 µM (inactive),28.4 µM (inactive),75.3 µM (inactive),51.1 µM (inactive),> 100 µM (inactive),17.7 µM (inactive),26.7 µM (inactive),78.3 µM (inactive),30.1 µM (inactive),27 µM (inactive),19.3 µM (inactive)
CC1(CO)OC(n2cnc3c(N)ncnc32)C(O)C1O (stereo unspecified),> 10 µM (inactive),> 100 µM (inactive),> 100 µM (inactive),> 100 µM (inactive),> 100 µM (inactive),,> 100 µM (inactive),87.3 µM (inactive),,,,> 100 µM (inactive),,,,,,,,
CCN(CC)CCn1nc2c3c(c(NCCN)ccc31)Sc1cc(O)ccc1-2,0.417 µM (active),,0.507 µM (active),0.505 µM (active),1.07 µM (active),,2.43 µM (inactive),0.813 µM (active),1.4 µM (inactive),,,0.516 µM (active),,,,,,,,
CCCCCCCCCCCCNC(=S)OC,15.4 µM (inactive),18.2 µM (inactive),16.7 µM (inactive),11.5 µM (inactive),15.5 µM (inactive),,,16.8 µM (inactive),20.7 µM (inactive),,,14.8 µM (inactive),,,,,,,,
COC(=O)C1CCC(=O)C(Sc2ccccc2)C1 (stereo unspecified),> 100 µM (inactive),,> 100 µM (inactive),51.6 µM (inactive),,> 100 µM (inactive),> 100 µM (inactive),24.4 µM (inactive),> 100 µM (inactive),,,> 100 µM (inactive),,,,,,,,
FC(F)(F)c1ccc2c(c1)nc1n2C(c2c(Cl)cccc2Cl)SC1 (stereo unspecified),,21.8 µM (inactive),16.1 µM (inactive),17.3 µM (inactive),18.2 µM (inactive),21.1 µM (inactive),13.2 µM (inactive),15.1 µM (inactive),14.2 µM (inactive),15.7 µM (inactive),21.5 µM (inactive),14.9 µM (inactive),23 µM (inactive),21.4 µM (inactive),19.7 µM (inactive),17 µM (inactive),16.8 µM (inactive),16.6 µM (inactive),15 µM (inactive),15.8 µM (inactive)
COC1OC2COC1(OC)C1OC(C)(C)OC21 (stereo unspecified),,> 100 µM (inactive),> 100 µM (inactive),> 100 µM (inactive),> 100 µM (inactive),> 100 µM (inactive),> 100 µM (inactive),> 100 µM (inactive),> 100 µM (inactive),> 100 µM (inactive),> 100 µM (inactive),> 100 µM (inactive),> 100 µM (inactive),> 100 µM (inactive),> 100 µM (inactive),> 100 µM (inactive),> 100 µM (inactive),> 100 µM (inactive),> 100 µM (inactive),> 100 µM (inactive)
CN(C)CC1CCC/C(=C\c2ccccc2)C1=O (stereo unspecified),,15.5 µM (inactive),1.75 µM (inactive),3.74 µM (inactive),1.85 µM (inactive),2.82 µM (inactive),1.94 µM (inactive),13.8 µM (inactive),17.9 µM (inactive),0.575 µM (active),10.8 µM (inactive),1.77 µM (inactive),7.69 µM (inactive),15.3 µM (inactive),2.77 µM (inactive),1.98 µM (inactive),1.78 µM (inactive),2.99 µM (inactive),8.49 µM (inactive),2.12 µM (inactive)
O=[N+]([O-])c1ccc(C2=NOC(c3ccccc3F)N2C23CC4CC(CC(C4)C2)C3)cc1 (stereo unspecified),,> 100 µM (inactive),> 100 µM (inactive),> 100 µM (inactive),> 100 µM (inactive),> 100 µM (inactive),> 100 µM (inactive),> 100 µM (inactive),> 100 µM (inactive),> 100 µM (inactive),> 100 µM (inactive),> 100 µM (inactive),> 100 µM (inactive),> 100 µM (inactive),> 100 µM (inactive),> 100 µM (inactive),> 100 µM (inactive),> 100 µM (inactive),> 100 µM (inactive),> 100 µM (inactive)
CSC1(SC)N2Cc3ccccc3N=C2C1(c1ccccc1)c1ccccc1,,2.6 µM (inactive),11.6 µM (inactive),24.2 µM (inactive),8.22 µM (inactive),> 100 µM (inactive),6.4 µM (inactive),> 100 µM (inactive),6.67 µM (inactive),8.17 µM (inactive),16.4 µM (inactive),11 µM (inactive),> 50.6 µM (inactive),19.5 µM (inactive),29 µM (inactive),26.7 µM (inactive),4.01 µM (inactive),12.5 µM (inactive),12 µM (inactive),4.51 µM (inactive)
N#C/C(=C\c1ccc2ccccc2c1)c1ccccc1,14 µM (inactive),21.7 µM (inactive),26.7 µM (inactive),14.9 µM (inactive),,53.2 µM (inactive),13 µM (inactive),23.2 µM (inactive),,,,17.8 µM (inactive),,,,,,,,
